Experimental data: PMC4608732, “Phosphorylation and Internalization of Lysophosphatidic Acid Receptors LPA1, LPA2, and LPA3” (PLoS ONE, 2015)

Assays:
Format in all cases: cell-based
LPA1 receptor [1] = biological target: T1, LPA1 receptor (Mus musculus, UniProt P61793); experiment: Intracellular calcium concentration response to LPA, C9 cells overexpressing LPA1
T1 construct: expressed in transfected cells
Protocol: C9 cells (Clone 9, rat hepatic epithelial cells, CRL-1439™), obtained directly from American Type Culture Collection, were cultured in Ham’s F12 Kaighn’s modification medium supplemented with 10% fetal bovine serum, 100 μg/ml streptomycin, 100 units/ml penicillin and 0.25 μg/ml amphotericin B at 37°C under a 95% air and 5% CO2 atmosphere, as described previously. The medium was replaced with one containing 1% fetal bovine serum, 12–16 h before the experiment. C9 cells stably expressing the mouse LPA1 receptor fused at the carboxyl termini with eGFP were those previously described. […] As depicted in”Fig A in S1 File”, expression of LPA1 and LPA2 receptors was similar (~80%) whereas that of LPA3 was consistently lower (~60%), as evidenced by fluorescence imaging and flow cytometry. Flow cytometry was performed using an Attune NxT Acoustic Focusing Cytometer, employing excitation of 488 nm; data were analyzed using the Attune cytometric software included with the equipment.
This procedure has been described previously. […] Determinations were carried in an AMINCO-Bowman Series 2 luminescence spectrometer, employing 340 and 380 nm excitation wavelengths and an emission wavelength of 510 nm; chopper interval was 0.5 sec. The intracellular calcium concentration was calculated as described by Grynkiewicz et al.. […]

LPA1 receptor [2] = biological target: T1, LPA1 receptor; experiment: Heterologous (PMA) / homologous (LPA) desensitization of LPA-induced calcium response, LPA1 cells; settings: preincubation 10 min, washed, challenge 1 μM LPA, LPA1 cells
Protocol: (§1) This procedure has been described previously. Briefly, cells were loaded with 2.5 μM Fura-2 AM in Krebs–Ringer–Hepes containing 0.05% bovine serum albumin (pH 7.4) for 1 h at 37°C and then washed to eliminate unincorporated indicator. Determinations were carried in an AMINCO-Bowman Series 2 luminescence spectrometer, employing 340 and 380 nm excitation wavelengths and an emission wavelength of 510 nm; chopper interval was 0.5 sec. The intracellular calcium concentration was calculated as described by Grynkiewicz et al.. In the experiments where prolonged incubation was required (resensitization studies), cells were stimulated, washed, and the incubation was continued in the presence of Fura-2 AM, to avoid dye depletion.
(§2) Agonists-mediated decreases occurred in a concentration-dependent fashion, with a maximum at the concentration of ~ 100 nM. […] It is worth noticing that the shift in the curves was more pronounced in LPA1- or LPA3-expressing cells, than in those that expressed the LPA2 subtype.
(§3) Plotted are the increases in calcium as the percentage of that obtained in cells preincubated without any agent as mean ± S. E. M. of 6 experiments using different cell preparations.

LPA2 receptor = LPA2 receptor (Homo sapiens, UniProt Q9HBW0); experiment: Heterologous (PMA) / homologous (LPA) desensitization of LPA-induced calcium response, LPA2 cells; settings: preincubation 10 min, washed, challenge 1 μM LPA, LPA2 cells
Chain of LPA2 receptor (Q9HBW0 whole entry): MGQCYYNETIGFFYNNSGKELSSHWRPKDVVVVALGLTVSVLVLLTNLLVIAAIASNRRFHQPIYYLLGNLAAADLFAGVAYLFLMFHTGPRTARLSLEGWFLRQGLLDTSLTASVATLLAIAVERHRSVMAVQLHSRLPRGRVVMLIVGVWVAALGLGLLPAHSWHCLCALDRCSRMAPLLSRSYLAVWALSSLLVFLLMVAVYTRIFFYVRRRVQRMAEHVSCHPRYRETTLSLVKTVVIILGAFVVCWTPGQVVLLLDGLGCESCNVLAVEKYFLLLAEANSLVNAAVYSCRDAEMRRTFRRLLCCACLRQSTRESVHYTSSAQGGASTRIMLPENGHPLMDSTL
Protocol: as §1, §2, §3

LPA1 receptor [3] = biological target: T1, LPA1 receptor; experiment: LPA1 receptor phosphorylation ([32P]Pi labeling, immunoprecipitation)
Protocol: The procedure was very similar to that previously described to study LPA1 receptor phosphorylation. In brief, cells were incubated in phosphate-free Dulbecco’s modified Eagle’s medium containing 100 μCi/ml [^32P]Pi for 3 h at 37°C. LPA1- and LPA2-expressing cells were cultured in 6 well plates, whereas those expressing LPA3 receptors were cultured in 10 cm dishes. Labeled cells were stimulated with the agents tested and then washed twice with ice-cold phosphate buffered saline and solubilized in buffer containing 10 mM Tris, 150 mM NaCl, 1% sodium cholate, 1% Nonident P40, protease and phosphatase inhibitors, pH 7.4 [11, 12, 14]. The lysates were incubated overnight with protein A-agarose and anti-GFP serum with constant agitation at 4°C. Samples were washed and the pellets containing the immunocomplexes were solubilized in Laemmli’s sample buffer containing 5% β-mercaptoethanol. Proteins were separated using 10% SDS-PAGE and electrotransferred onto polyvinyliden fluoride membranes. Receptor phosphorylation was analyzed with a Molecular Dynamics Typhoon PhosphorImager and the ImageJ software (http://rsb.info.nih.gov/ij/).

LPA3 receptor = biological target: T2, LPA3 receptor (Homo sapiens, UniProt Q9UBY5); experiment: LPA3 receptor phosphorylation ([32P]Pi labeling, immunoprecipitation)
T2 sequence (Q9UBY5 1-353): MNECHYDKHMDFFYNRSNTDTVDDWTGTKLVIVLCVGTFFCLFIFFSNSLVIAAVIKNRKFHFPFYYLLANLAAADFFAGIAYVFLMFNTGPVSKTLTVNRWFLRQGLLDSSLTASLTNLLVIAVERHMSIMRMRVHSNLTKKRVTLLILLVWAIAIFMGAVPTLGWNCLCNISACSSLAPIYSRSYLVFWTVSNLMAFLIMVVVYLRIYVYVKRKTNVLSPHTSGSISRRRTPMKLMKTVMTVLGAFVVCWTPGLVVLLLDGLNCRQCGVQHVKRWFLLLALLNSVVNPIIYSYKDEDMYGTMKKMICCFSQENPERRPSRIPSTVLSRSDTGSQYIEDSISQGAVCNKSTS

LPA1 receptor [4] = biological target: T1, LPA1 receptor; experiment: LPA1 receptor internalization, confocal imaging; settings: LPA1 cells
Protocol: Cells were seeded at approximately 30% confluence onto glass-bottomed Petri dishes and cultured for 3 h at 37°C in media containing 1% serum. After treatment, cells were washed three times with phosphate buffered saline and fixed with 4% paraformaldehyde in 0.1 M phosphate buffer for 20 min at room temperature; samples were then washed three additional times with phosphate buffered saline. The fluorescent images were acquired with an Olympus Fluoview FV10 confocal microscope with a water-immersion objective (60X). To determine receptor internalization, the plasma membrane was delineated utilizing the differential interference contrast imaging, and fluorescence in this region was quantified employing the ImageJ software. At least 5 or 6 images of different cultures were taken for each condition. Data were normalized as follows: for each experiment, fluorescence (arbitrary units) at the plasma membrane of baseline samples were pooled and the average was considered as 100%.

T1 sequence (P61793 whole entry): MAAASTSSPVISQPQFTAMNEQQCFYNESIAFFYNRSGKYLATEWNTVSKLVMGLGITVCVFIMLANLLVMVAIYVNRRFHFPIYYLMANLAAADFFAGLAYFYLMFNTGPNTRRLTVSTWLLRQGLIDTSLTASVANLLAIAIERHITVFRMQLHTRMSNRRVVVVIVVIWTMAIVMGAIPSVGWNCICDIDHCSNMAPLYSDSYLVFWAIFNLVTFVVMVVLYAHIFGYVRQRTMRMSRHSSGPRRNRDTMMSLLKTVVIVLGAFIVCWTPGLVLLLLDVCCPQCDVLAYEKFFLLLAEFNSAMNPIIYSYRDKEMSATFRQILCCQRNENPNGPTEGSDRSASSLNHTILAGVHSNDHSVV

CCCCCCCC/C=C\CCCCCCCC(=O)OC[C@@H](O)COP(=O)(O)O [LPA]
EC50 (LPA1 receptor [1]; LPA1-overexpressing cells, read-out: EC50, increase in intracellular calcium concentration): 200 to 400 nM | calcium response (increase of the cation's concentration) (LPA1 receptor [1]; cells over-expressing LPA1): 450 to 600 nM | concentration giving maximum homologous desensitization (LPA1 receptor [2]): ~ 100 nM | concentration giving maximum homologous desensitization (LPA2 receptor): ~ 100 nM | time to maximum receptor phosphorylation (LPA1 receptor [3]; 1 μM agent, LPA1 cells): ≤ 15 min | concentration at which receptor phosphorylation saturates (LPA1 receptor [3]; 15 min incubation, LPA1-overexpressing cells): ~ 1 μM | EC50 (LPA1 receptor [3]; 15 min incubation, LPA1-overexpressing cells, read-out: EC50, receptor phosphorylation): 10 to 30 nM | time to maximum receptor phosphorylation (LPA3 receptor; 1 μM agent, LPA3 cells): ≤ 15 min | concentration at which receptor phosphorylation saturates (LPA3 receptor; 15 min incubation, LPA3-overexpressing cells): ~ 1 μM | recovery of fluorescence at the membrane level after washing (LPA1 receptor [4]; 1 μM LPA 10 min, washed, incubated to 60 or 120 min): recovered rapidly and completely | receptor internalization (fluorescence at the plasma membrane) (LPA1 receptor [4]; 1 μM agent, 30 or 60 min): markedly decreasing fluorescence at the plasma membrane level
